From patent US20140194500A1 (Kookmin University Industry Academic Cooperation Foundation, priority 2013, published 2014) come the findings set out here.

Read-outs that look alike come from different tables or passages of the source. A value given as a limit tells only on which side of the number the result lay.

Data set [1] has as its target T1, SARS coronavirus helicase nsP13 (Severe acute respiratory syndrome coronavirus, UniProt P0C6X7). The format is biochemical.
For another data set, the target named is HCV viral helicase, NS3h (Hepatitis C virus genotype 1a, UniProt P27958). The format is biochemical.
In the next data set the target is HCV NS3h (Hepatitis C virus genotype 1a, UniProt P27958). The format is biochemical.
Data set [2] has as its system MCF10A cells. Conditions: human.
The target of data set [3] is T1, SARS coronavirus helicase nsP13. The experiment in a line: biochemical. Conditions: for inhibition at 10 µM: read-out: inhibition of the ATPase activity of nsP13.
Data set [4] has as its system MCF10A cells. The experiment in a line: Cytotoxicity: growth of normal breast epithelial MCF10A cells. Conditions: 2 μM, counted every 24h for 3 days.

Chain of HCV NS3h (P27958 1193-1657): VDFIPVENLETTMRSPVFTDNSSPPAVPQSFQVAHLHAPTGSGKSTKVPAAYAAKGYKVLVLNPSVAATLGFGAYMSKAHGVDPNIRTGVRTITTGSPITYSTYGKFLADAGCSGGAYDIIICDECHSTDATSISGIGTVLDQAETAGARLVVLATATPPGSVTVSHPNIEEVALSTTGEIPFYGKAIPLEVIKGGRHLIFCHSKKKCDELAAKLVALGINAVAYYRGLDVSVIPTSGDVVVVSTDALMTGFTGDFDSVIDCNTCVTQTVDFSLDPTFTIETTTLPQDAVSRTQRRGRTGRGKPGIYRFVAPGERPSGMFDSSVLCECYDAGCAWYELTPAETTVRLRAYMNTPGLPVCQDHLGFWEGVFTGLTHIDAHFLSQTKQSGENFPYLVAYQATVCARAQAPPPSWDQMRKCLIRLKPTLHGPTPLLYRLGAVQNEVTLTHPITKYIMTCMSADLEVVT
Chain of HCV viral helicase, NS3h (P27958 1193-1657): as above

Turning to `O=c1c(O)c(-c2cc(O)c(O)c(O)c2)oc2cc(O)cc(O)c12` [No. 6, myricetin], the “inhibition of the dsDNA-unwinding activity of SARS helicase, nsP13” value in data set [1] is on record as “not inhibition of helicase activity”. Also, the “inhibition of the DNA unwinding activity of HCV viral helicase” value on HCV viral helicase, NS3h is “did not suppress the helicase activity of HCV virus”. In addition, the “suppression of the ATPase activity of the HCV viral helicase” value at HCV NS3h is reported as “did not seem to suppress the ATPase activity of HCV helicase protein”. Also, the “effect on the growth of MCF10A cells (viable cell number)” value with MCF10A cells [2] was “did not affect the growth of MCF10A cells”.

As usually defined, the IC50 is the midpoint of a concentration-inhibition curve. As a reminder, the inhibition is the share of the control response that was lost under treatment. As to `O=c1cc(-c2ccc(O)cc2)oc2cc(O)c(O)c(O)c12` [No. 8, scutellarein], in data set [3], the half-maximal inhibitory concentration (IC50) is 860 ± 480 nM and the inhibition at 10 µM is above 90%. Further, the “effect on the growth of MCF10A cells (viable cell number)” value in the data set on MCF10A cells [4] is on record as “did not affect the growth of MCF10A cells”.

As to `O=c1cc(-c2ccc(O)c(-c3c(O)cc(O)c4c(=O)cc(-c5ccc(O)cc5)oc34)c2)oc2cc(O)cc(O)c12` [No. 18, amentoflavone], the inhibition at 10 µM in data set [3] was around 20%.

Regarding `CC1(C)CC[C@]2(C)CC=C3[C@]4(C)CC[C@H]5C(C)(C)[C@@H](O)CC[C@]5(C)[C@H]4CC[C@@]3(C)[C@@H]2C1` [No. 58, taraxerol], the inhibition at 10 µM in data set [3] was around 20%.

As for Diosmetin-7-O-Glc-Xyl [No. 35], the “inhibition of the ATPase activity of nsP13” value in data set [3] (10 µM) was “around 20%”.
